These results are taken from paper PMC5431435, “A short artificial antimicrobial peptide shows potential to prevent or treat bone infections” (Scientific Reports, 2017).

The subject of data set [1] is human primary osteoblast-like cells. The conditions noted are these: differentiation medium with 17 or 133 µg/ml AMP2, days 0, 7, 14, 21.
Experimental: Confluent cells were cultured for 21 days in cultivation medium (CM), differentiation medium (DM: D/H + 10% FCS + 1% P/S + 0.5 mM L-Asc + 10 mM β-Glyc + 100 nM dexamethasone + 1.5 mM calcium chloride) and DM with a low (17 µg/ml) and a high (133 µg/ml) AMP2 concentration. Medium was changed every 3–4 days and fresh AMP was added by each change. Cells from two donors were used and the experiments were done in triplicate (n = 6).
Cells were incubated with 0.13% w/v 4-nitrophenyl phosphate disodium salt hexahydrate (Sigma-Aldrich, Germany) dissolved in 0.1 M AP-buffer (50 mM glycine, 100 mM Tris-Base, 1 mM MgCl2 in dH2O) at pH 10.5 for 30 min at 37 °C and absorbance was measured at 405 nm wavelength. […]
Cells were fixed with 3.7% v/v formalin for 10 min at RT and incubated with 0.5% w/v alizarin red (Sigma-Aldrich, Germany) in dH2O for 10 min at RT. Quantification was done by removing staining with 5% w/v SDS in 5 mM HCl and measuring absorbance at 570 nm.
RNA was isolated after 0, 7, 14 and 21 days in culture using the NucleoSpin RNA Kit (Macherey Nagel, Germany). […] For all primers, amplification efficiencies were analyzed and mean normalized expression (MNE) ratios were calculated using the ΔΔCt method with efficiency correction and normalization to the control (d0 of differentiation) and 18 S ribosomal RNA used as a reference gene.
The subject of a further data set is S. aureus. Kind of data set: Effect of FCS on AMP2 activity. The conditions noted are these: for bacterial growth: then 3 h with S. aureus, mean ± StD, n = 3. Format: cell-based, Staphylococcus aureus. On the procedure: In a further experiment the possible effect of serum on AMP activity was investigated. AMP2 (67 µg/ml) was preincubated for 2 hours at 37 °C with different concentrations of FCS and then added to S. aureus.
In addition, the influence of fetal calf serum (FCS, containing 17 g/l albumin; Biochrom, Germany) on AMP activity was determined by preincubating 67 µg/ml of the AMP2 with 0–10% FCS at 37 °C for 2 hours followed by incubation with S. aureus for 3 hours. The control group, without AMP, was FCS free (n = 3).

In a further data set the test system is S. aureus biofilm. Kind of data set: Biofilm assay by microcalorimetry and plating (MBCB). The conditions noted are these: for inhibition of the biofilm compared to the growth control: MH++, n = 6. Format: cell-based, Staphylococcus aureus. On the procedure: To confirm MIC of the AMP2 by isothermal microcalorimetry, three different bouillons were tested: Mueller-Hinton II bouillon with adjusted cations (MH^++; BBL, Germany), Mueller-Hinton bouillon with low cations (MH^+; with 3–4 mg/l Ca^2+ and 5–6 mg/l Mg^2+; Oxoid, Germany) and Mueller-Hinton bouillon without cations (MH^−; Merck, Germany). AMP2 concentrations of 2–33 µg/ml were tested with the three different bouillons and gentamicin concentrations of 0.125–2 µg/ml were analyzed with MH^++. Staphylococcus aureus (ATCC 29213, 300 µl with 10^5 cfu/ml) was added to each microcalorimetry glass ampoule (Waters; Germany) containing 3.7 ml of AMP or gentamicin solution of (n = 3). The ampoules were hermetically sealed and heat flow (W) was measured for 24 hours in the calorimeter TAM III (TA Instruments, USA). For the biofilm assay, S. aureus biofilm was grown on glass beads (4 mm diameter, 60 µm pores; ROBU Glasfilter-Geräte, Germany) in MH^++ bouillon at 37 °C in an aerobe atmosphere for 24 hours. After washing with sodium chloride, beads were incubated with AMP2 (133, 267, 533 µg/ml) or daptomycin (128 µg/ml) in MH^++ bouillon for another 24 hours at 37 °C. Beads were washed again and added to the glass ampoule with fresh MH^++ bouillon. The total heat (J) was measured for 48 hours in the calorimeter. A concentration, which inhibits minimum 90% of biofilm, can be defined as the minimal biofilm inhibitory concentration (MICB). All samples were tested with n = 6.
Furthermore, the MBC for biofilms (MBCB) where 99.9% of all bacteria are killed was determined. After measurement, bouillon and glass beads were plated on CA plates and incubated for 24 hours at 37 °C in an aerobe atmosphere.

“KRRWRIWLV [AMP2, 9mer cationic antimicrobial peptide … from an optimized peptide library]”: the “effect on the osteogenic differentiation (expression of RUNX2, AP, Col1)” value in data set [1] is given as “no effect”. The bacterial growth in the data set on S. aureus (AMP2 67 µg/ml preincubated 2 h at 37 °C with 0% FCS) was 7 ± 9 cfu/ml; in the data set on S. aureus (AMP2 67 µg/ml preincubated 2 h at 37 °C with 0.1% FCS) it was 37 ± 13 cfu/ml; with S. aureus (AMP2 67 µg/ml preincubated 2 h at 37 °C with 1% FCS) it was 553 ± 255 cfu/ml; in the data set with S. aureus (AMP2 67 µg/ml preincubated 2 h at 37 °C with 10% FCS), 2,078 ± 540 cfu/ml. In the data set with S. aureus (AMP2 67 µg/ml, 10% FCS), the “bacterial growth compared to the group without AMP” value was “less than 2%”. Further, the “inhibition of the biofilm compared to the growth control” value in the data set on S. aureus biofilm (133 µg/ml AMP2, total heat after 48 hours) was determined as 13 ± 4%; with S. aureus biofilm (267 µg/ml AMP2, total heat after 48 hours), 35 ± 29%; with S. aureus biofilm (533 µg/ml AMP2, total heat after 48 hours), 97 ± 1%. The “inhibition of the biofilm, single samples” value with S. aureus biofilm (267 µg/ml AMP2, five of the six samples (the sixth completely killed the bacteria)) is 18–38%. For the same sequence, the “killing of the biofilm (MBCB determination by plating samples and glass beads)” value in the data set on S. aureus biofilm (533 µg/ml AMP2, all samples, no growth on agar plates) is given as “totally killed”.
